Data published in article PMC5391474, “Investigation of the Role of Protein Kinase D in Human Rhinovirus Replication” (Journal of Virology, 2017).

Molecular target: T1, TrkA(h) (Homo sapiens, UniProt P04629)
T1 construct: gene NTRK1
Assay: biochemical
Set-up: in vitro kinase selectivity panel, protein and lipid kinases, single concentration, ATP at Km
Conditions: ATP at Km
Procedure, shortened: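 Single-point screen against a protein and lipid kinase panel: inhibitor at 1 μM. ATP concentration for every kinase equivalent to its Km.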

T1 sequence (P04629 whole entry): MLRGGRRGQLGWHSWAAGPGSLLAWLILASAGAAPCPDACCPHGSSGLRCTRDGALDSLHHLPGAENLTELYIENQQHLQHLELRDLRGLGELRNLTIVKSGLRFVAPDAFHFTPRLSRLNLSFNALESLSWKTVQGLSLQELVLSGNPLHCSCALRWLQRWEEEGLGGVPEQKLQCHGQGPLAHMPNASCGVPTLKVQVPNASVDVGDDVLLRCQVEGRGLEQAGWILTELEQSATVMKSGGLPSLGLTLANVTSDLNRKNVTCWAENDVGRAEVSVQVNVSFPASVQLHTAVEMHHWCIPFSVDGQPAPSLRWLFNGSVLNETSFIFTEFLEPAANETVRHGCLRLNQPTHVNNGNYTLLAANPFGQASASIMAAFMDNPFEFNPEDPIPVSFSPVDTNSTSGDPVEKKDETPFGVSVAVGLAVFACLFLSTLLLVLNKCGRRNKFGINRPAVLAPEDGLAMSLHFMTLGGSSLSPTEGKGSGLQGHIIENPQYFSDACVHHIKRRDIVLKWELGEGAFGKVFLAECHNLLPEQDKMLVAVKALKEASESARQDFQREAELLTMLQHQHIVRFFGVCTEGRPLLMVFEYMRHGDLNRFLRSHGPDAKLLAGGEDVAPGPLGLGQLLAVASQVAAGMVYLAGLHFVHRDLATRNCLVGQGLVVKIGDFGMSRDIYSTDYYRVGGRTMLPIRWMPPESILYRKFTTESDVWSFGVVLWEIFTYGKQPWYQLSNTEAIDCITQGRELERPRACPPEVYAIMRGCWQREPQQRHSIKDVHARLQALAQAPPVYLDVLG

`CC[C@@H](N)CNc1ccnc(-c2cc(-c3cnn(C)c3)ccc2O)n1` [CRT0066101] showed an inhibition at 1 µM of 23%.
